≈ marks a conversion by molar mass, not a printed value.
Tests used:
Plasmopara viticola = assay: Direct protectant activity against vine downy mildew (PVP), Example 53(c); assay type: in vivo; details: protectant foliar spray, 1000 ppm
Experimental: The test is a direct protectant one using a foliar spray. The lower surface of leaves of whole vine plants (cv Cabernet Sauvignon) are sprayed with the test compound at a dosage of 1000 ppm using an automated sprayline as described under (a), and after a subsequent period of 24 hours under normal glasshouse conditions the lower surfaces of the leaves are inoculated by spraying with an aqueous suspension containing 2.5×10^4 zoosporangia/ml. The inoculated plants are kept for 24 hours in a high humidity cabinet, 5 days under normal glasshouse conditions and then returned for a further 24 hours to high humidity. Assessment is based on the percentage of leaf area covered by sporulation compared with that on control leaves. The extent of disease control in all the above tests is expressed as a rating compared with either an untreated control or a diluent-sprayed-control, according to the criteria: […]

[1] = tested on: Pseudocercosporella herpotrichoides; assay: Activity against wheat eyespot in-vitro (PHI), Example 53(j); assay type: cell-based; details: 50 ppm, 12 days at 20° C.
Experimental: This test measures the in vitro activity of compounds against the fungus causing wheat eyespot. The test compound is dissolved or suspended in acetone and is added into 4 ml aliquots of half strength Potato Dextrose Broth dispensed in 25-compartment petri dishes to give a final concentration of 50 ppm compound and 2.5% acetone. Each compartment is inoculated with a 6 mm diameter plug of agar/mycelium taken from a 14 day old culture of P. herpotrichoides. Plates are incubated at 20° C. for 12 days until the assessment of mycelial growth. The extent of disease control in all the above tests is expressed as a rating compared with either an untreated control or a diluent-sprayed-control, according to the criteria: […]

[2] = tested on: Pseudocercosporella herpotrichoides; assay: MIC by serial dilution, Example 55, Pseudocercosporella herpotrichoides; assay type: cell-based; details: Oculimacula yallundae; microtitre plates, 20° C., 6-8 days
Experimental: (§1) The MIC (Minimum Inhibition Concentration)-values were determined by serial dilution tests using 48-well microtitre plates. The dilution of the test compounds in the nutrient solution and the distribution to the wells were carried out by a TECAN RSP 5000 robotic sample processor.
(§2) For preparation of the nutrient solution, V8 juice (Trade Mark) was neutralised with calcium carbonate and centrifuged. The supernatant was diluted with distilled water (1:5) to the final concentration.
(§3) The fungi (Alternaria solani, Botrytis cinerea, Pseudocercosporella herpotrichoides, Micronectriella nivalis, Gaeumannomyces graminis) were added into the wells as a droplet of spore suspension. The microtitre plates were then incubated at 20° C. for 6-8 days. The MIC-value, which was defined to be the lowest concentration in the dilution series without mycelial growth, was determined by visual inspection of the plates.

Gaeumannomyces graminis = assay: MIC by serial dilution, Example 55, Gaeumannomyces graminis; assay type: cell-based; details: microtitre plates, 20° C., 6-8 days
Experimental: as §1, §2, §3

Micronectriella nivalis = assay: MIC by serial dilution, Example 55, Micronectriella nivalis; assay type: cell-based; details: microtitre plates, 20° C., 6-8 days
Experimental: as §1, §2, §3

Cercospora arachidicola = assay: Field pot test with Cercospora arachidicola on peanuts; assay type: in vivo; details: Mycosphaerella arachidis, topical, 360 h, 500 μg/ml spray, 1000 l/ha, 15 days after treatment, Abbott formula, read-out: % efficacy Cercospora arachidicola
Experimental: 15 Seeds of peanuts were sown in pots filled with a soil substrate. When the plants have developed 4 true leaves (approx. 12-14 days after seeding) the fungicides and the test compounds were applied using a hand sprayer. The test compounds were applied at a concentration of 500 μg/ml in a […] containing 10% acetone and 0.05% Triton X 155 in water. The total amount of […] corresponded to 1000 l/ha. Six replicates (pots) per treatment were used. 2 days after treatment the pots were exposed to peanut plants in the field on which the fungus, Cercospora arachidicola, had formed sporulating lesions. The assessment was carried out 15 days after treatment by estimating the percentage of infected leaf area. The % efficacy was calculated using the Abbott formula.

Puccinia arachidis = assay: Field pot test with Puccinia arachidis on peanuts; assay type: in vivo; details: topical, 456 h, 500 μg/ml spray, 1000 l/ha, 19 days after treatment, Abbott formula, read-out: % efficacy Puccinia arachidis
Experimental: 15 seeds of peanuts were sown in pots filled with a soil substrate. When the plants have developed 4 true leaves the fungicides and the test compounds were applied using a hand sprayer. The test compounds were applied at a concentration of 500 μg/ml in a […] containing 10% acetone and 0.05% Triton X 155 in water. The total amount of […] corresponded to 1000 l/ha. Six replicates per treatment were used. 2 Days after treatment the pots were exposed to peanut plants in the field on which the fungus, Puccinia arachidis, had formed sporulating pustules on the leaves. The assessment was carried out 19 days after treatment by estimating the percentage of infected leaf area. The % efficacy was calculated using the Abbott formula.

Leptosphaeria nodorum = assay: Activity against wheat leafspot (LN), Example 53(f); assay type: in vivo; details: therapeutic foliar spray, 1000 ppm
Experimental: The test is a direct therapeutic one, using a foliar spray. Leaves of wheat plants (cv Norman), at the single leaf stage, are inoculated by spraying with an aqueous suspension containing 1×10^6 spores/ml. The inoculated plants are kept for 24 hours in a high humidity compartment prior to treatment. The plants are sprayed with a solution of the test compound at a dosage of 1000 ppm using an automated sprayline as described under (a). After drying, the plants are kept for 6-8 days at 22° C. and moderate humidity, followed by assessment. Assessment is based on the density of lesions per leaf compared with that on leaves of control plants. The extent of disease control in all the above tests is expressed as a rating compared with either an untreated control or a diluent-sprayed-control, according to the criteria: […]

Alternaria solani = assay: MIC in the serial dilution test, Example 56, Alternaria solani; assay type: cell-based; details: microtiter serial dilution, 6-12 days
Experimental: (§4) The serial dilution test was carried out using Microtiter test with 24 or 48 wells per plate. The test compounds were used a 1000 μg/ml aqueous stock suspension containing 20% acetone which was then sterile filtered in a 0.2μ filter. The dilution of the sterile fungicide suspension with the nutrient solution and the subsequent pipetting into the different wells was carried out using a TECAN RSP 5000 Robotic Sample Processor. The concentrations tested ranged from 100 μg/ml down to 0.05 μg/ml. 12 Dilution steps were made. The nutrient solution was chosen according to the nutrient requirements of the pathogen. The inoculum was added as a droplet (50 μl) of a spore suspension (5×10^8 /ml) into the wells. After 6-12 days incubation at suitable temperatures, the MIC value was determined by visual estimation. The lowest concentration in the dilution row without mycelial growth was defined as the MIC value.

Botrytis cinerea = assay: MIC in the serial dilution test, Example 56, Botrytis cinerea; assay type: cell-based; details: microtiter serial dilution, 6-12 days
Experimental: as §4

Rhizoctonia solani = assay: MIC in the serial dilution test, Example 56, Rhizoctonia solani; assay type: cell-based; details: microtiter serial dilution, 6-12 days
Experimental: as §4

With `COc1ccccc1-c1c(Cl)nc2ncnn2c1Cl` [Example 5] the “Fungicidal Activity PVP (disease control rating)” value (Plasmopara viticola) was 2 (greater than 80% disease control) and the “Fungicidal Activity PHI (disease control rating)” value (“Fungicidal Activity PHI” below) [1] was 2 (greater than 80% disease control).

`Clc1ccccc1-c1c(Cl)nc2ncnn2c1Cl` [Example 1, 5,7-dichloro-6-(2-chlorophenyl)-1,2,4-triazolo-[1,5a]pyrimidine] was tested, and the MIC [2] was 25 µg/mL (≈ 83.5 µM), the MIC (Gaeumannomyces graminis) was 3.13 µg/mL (≈ 10.4 µM) and the MIC (Micronectriella nivalis) was 1.56 µg/mL (≈ 5.21 µM). The “Fungicidal Activity PHI” value [1] was 2 (greater than 80% disease control).

For `Clc1nc2ncnn2c(Cl)c1-c1ccc(-c2ccccc2)cc1` [Example 13], the MIC [2] was greater than 100 µg/mL, the MIC (Gaeumannomyces graminis) was 0.39 µg/mL (≈ 1.14 µM) and the MIC (Micronectriella nivalis) was 6.25 µg/mL (≈ 18.3 µM). For the same compound, the “Fungicidal Activity PHI” value [1] was 2 (greater than 80% disease control).

`Clc1nc2ncnn2c(Cl)c1-c1ccccc1Br` [Example 18] was tested, and the “Fungicidal Activity PHI” value [1] was 2 (greater than 80% disease control).

`Clc1nc2ncnn2c(Cl)c1-c1ccc(Br)cc1` [Example 19] showed an MIC [2] of 12.5 µg/mL (≈ 36.3 µM), an MIC (Gaeumannomyces graminis) of 0.1 µg/mL (≈ 0.291 µM) and an MIC (Micronectriella nivalis) of 6.25 µg/mL (≈ 18.2 µM). The “Fungicidal Activity PHI” value [1] was 2 (greater than 80% disease control).

With `COc1cccc(-c2c(Cl)nc3ncnn3c2Cl)c1OC` [Example 21] the “Fungicidal Activity PHI” value [1] was 2 (greater than 80% disease control).

`COc1ccc(-c2c(Cl)nc3ncnn3c2Cl)cc1` [Example 38] was tested, and the pest or weed control at 500 µg/mL (Cercospora arachidicola) was 42% and the pest or weed control at 500 µg/mL (Puccinia arachidis) was 42%.

`CCOc1cccc(-c2c(Cl)nc3ncnn3c2Cl)c1OCC` [Example 24] was tested, and the “Fungicidal Activity LN (disease control rating)” value (Leptosphaeria nodorum) was 1 (about 50-80% disease control) and the “Fungicidal Activity PHI” value [1] was 2 (greater than 80% disease control).

Work on `CC(C)c1c(Cl)nc2ncnn2c1Cl` [Example 51] yielded an MIC (Alternaria solani) of 12.5 µg/mL (≈ 54.1 µM), an MIC (Botrytis cinerea) of 12.5 µg/mL (≈ 54.1 µM) and an MIC (Rhizoctonia solani) of 25 µg/mL (≈ 108 µM).

In the case of `CCOc1c(Cl)nc2ncnn2c1Cl` [Example 50], the MIC (Alternaria solani) was 12.5 µg/mL (≈ 53.6 µM), the MIC (Botrytis cinerea) was 25 µg/mL (≈ 107 µM) and the MIC (Rhizoctonia solani) was 100 µg/mL (≈ 429 µM).

In the case of `Clc1ccc(-c2c(Cl)nc3ncnn3c2Cl)cc1Cl` [Example 25], the “Fungicidal Activity LN (disease control rating)” value (Leptosphaeria nodorum) was 1 (about 50-80% disease control), the pest or weed control at 500 µg/mL (Cercospora arachidicola) was 25% and the pest or weed control at 500 µg/mL (Puccinia arachidis) was 42%.

For `Clc1nc2ncnn2c(Cl)c1-c1ccc2ccccc2c1` [Example 10], the “Fungicidal Activity PHI” value [1] was 2 (greater than 80% disease control).

Work on `COc1ccc(-c2c(Cl)nc3ncnn3c2Cl)cc1OC` [Example 14] yielded an MIC [2] of 25 µg/mL (≈ 76.9 µM), an MIC (Gaeumannomyces graminis) of 0.78 µg/mL (≈ 2.4 µM) and an MIC (Micronectriella nivalis) of 6.25 µg/mL (≈ 19.2 µM). For the same compound, the “Fungicidal Activity PHI” value [1] was 2 (greater than 80% disease control).

`Clc1nc2ncnn2c(Cl)c1-c1ccc(Oc2ccccc2)cc1` [Example 12] was tested, and the pest or weed control at 500 µg/mL (Cercospora arachidicola) was 67% and the pest or weed control at 500 µg/mL (Puccinia arachidis) was 33%.

Work on `CC(C)(C)c1ccc(-c2c(Cl)nc3ncnn3c2Cl)cc1` [Example 36] yielded an MIC [2] of 3.13 µg/mL (≈ 9.74 µM), an MIC (Gaeumannomyces graminis) of 0.78 µg/mL (≈ 2.43 µM) and an MIC (Micronectriella nivalis) of 0.39 µg/mL (≈ 1.21 µM).

With `Clc1nc2ncnn2c(Cl)c1-c1cccc2ccccc12` [Example 23] the “Fungicidal Activity PHI” value [1] was 1 (about 50-80% disease control).

Reference: patent US5854252A, “Dihalotriazolopyrimidine derivatives” (Shell Internationale Research Maatschappij B.V., priority 1993, dated 1998)
